# Results taken from article PMC12144822 (Parasites & Vectors, 2025).
# Key:
# Assay in all cases: Two-electrode voltage-clamp concentration-activation by the natural agonist, receptor expressed in Xenopus oocytes
# Assay type in all cases: cell-based
# Design in all cases: The corresponding open reading frames (ORF) were cloned into the pT7-TS transcription vector; expressed in transfected cells; host or cells: Xenopus laevis oocytes, cRNA injection
# Settings in all cases: concentration-activation curve
# Hsa-GABA α2β3γ2 = Hsa-GABA α2β3γ2 (Homo sapiens, UniProt P18507+P28472+P47869)
# Sequence of Hsa-GABA α2β3γ2 (P47869 29-451): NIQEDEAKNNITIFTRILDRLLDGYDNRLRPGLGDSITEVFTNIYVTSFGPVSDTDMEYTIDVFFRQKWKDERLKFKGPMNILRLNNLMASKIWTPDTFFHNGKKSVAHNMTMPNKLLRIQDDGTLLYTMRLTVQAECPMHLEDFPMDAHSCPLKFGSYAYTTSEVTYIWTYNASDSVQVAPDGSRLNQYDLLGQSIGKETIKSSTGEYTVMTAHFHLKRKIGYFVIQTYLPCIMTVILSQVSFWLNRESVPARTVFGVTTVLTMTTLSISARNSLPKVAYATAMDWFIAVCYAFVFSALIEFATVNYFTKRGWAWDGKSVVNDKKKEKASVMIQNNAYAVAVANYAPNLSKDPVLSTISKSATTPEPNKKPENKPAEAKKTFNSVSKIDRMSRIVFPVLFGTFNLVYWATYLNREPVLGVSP
# Sequence of Hsa-GABA α2β3γ2 (P28472 26-473): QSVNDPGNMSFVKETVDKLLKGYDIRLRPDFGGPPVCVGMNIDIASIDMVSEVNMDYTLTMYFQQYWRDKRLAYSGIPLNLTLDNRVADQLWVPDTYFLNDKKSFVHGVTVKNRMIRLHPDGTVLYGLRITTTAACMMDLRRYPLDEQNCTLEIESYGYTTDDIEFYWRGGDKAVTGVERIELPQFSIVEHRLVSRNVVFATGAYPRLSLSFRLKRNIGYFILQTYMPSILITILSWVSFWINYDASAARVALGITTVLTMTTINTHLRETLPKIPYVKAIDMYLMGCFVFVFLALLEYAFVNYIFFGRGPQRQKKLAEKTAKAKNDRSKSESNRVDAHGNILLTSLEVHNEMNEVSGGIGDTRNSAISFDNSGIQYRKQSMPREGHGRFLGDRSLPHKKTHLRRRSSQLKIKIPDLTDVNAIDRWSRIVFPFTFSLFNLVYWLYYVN
# Sequence of Hsa-GABA α2β3γ2 (P18507 40-467 isoform P18507-1 limits assumed): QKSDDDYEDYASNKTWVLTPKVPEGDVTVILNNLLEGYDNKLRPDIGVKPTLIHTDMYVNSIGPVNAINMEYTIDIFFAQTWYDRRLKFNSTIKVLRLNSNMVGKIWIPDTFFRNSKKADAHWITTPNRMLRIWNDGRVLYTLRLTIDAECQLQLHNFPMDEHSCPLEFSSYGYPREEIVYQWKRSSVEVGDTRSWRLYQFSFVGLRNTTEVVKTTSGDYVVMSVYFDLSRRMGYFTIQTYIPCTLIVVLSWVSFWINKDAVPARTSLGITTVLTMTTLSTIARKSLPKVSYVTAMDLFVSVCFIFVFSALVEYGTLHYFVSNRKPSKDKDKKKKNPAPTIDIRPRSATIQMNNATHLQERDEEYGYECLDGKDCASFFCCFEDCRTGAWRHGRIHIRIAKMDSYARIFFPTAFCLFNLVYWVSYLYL
# Description: (§1) Complementary DNA (cDNA) encoding for the human GABAA proteins α1 (NM_001127645.2), α2 (NM_001377146.1), α3 (KJ620007.1), α4 (NM_000809.4), α5 (NM_000810.4), α6 (NM_000811.3), β2 (XM_054352312.1), β3 (M82919.1), γ2 (NM_000816.3) and δ (NM_000815.5) were ordered from Genewiz (www.genewiz.com; Leipzig, Germany); for each gene, GenBank accession numbers are provided in parentheses. When necessary, silent mutations were introduced to break NheI or XhoI internal restriction sites. The corresponding open reading frames (ORF) were cloned into the pT7-TS transcription vector (introducing X. laevis β-globin untranslated cDNA to the 5’ and 3’ ends of the gene), following a procedure described in detail in a previous publication. The same process was used to obtain cDNA encoding canine GABAA proteins α4 (XM_025435560.1), α6 (XM_022417729.1) and δ (XM_005620414.2). Gene α2 (XM_025435664.1), α3 (XM_549343.5), α5 (XM_545805.6) and β3 (XM_025437408.1) were obtained by PCR; GenBank reference accession numbers are provided in parentheses. RNA extraction, cDNA synthesis and PCR amplification were performed as described previously. Total RNA was extracted from a piece of dog brain (Beagle breed; Canis lupus familiaris) from which 1 µg of total RNA (DNase-treated) was reverse-transcribed to cDNA using a (dT)30 primer and SuperScript III Reverse Transcriptase (Invitrogen, Thermo Fisher Scientific, Waltham, MA, USA). Gene-specific primers (Additional file 1: Table S1) were designed using Primer 3 software (http://frodo.wi.mit.edu/). […] The cycling conditions were: 98 °C for 30 s; then 38 cycles of 98 °C for 10 s, 58 °C for 30 s and 72 °C for 90 s; followed by 72 °C for 5 min. The dog subunits α1 (XM_546261.5), β2 (XM_014113040.1) and γ2 (XM_546259.5) had been previously amplified and described in a study by Rufener et al..
# (§2) Defoliculated X. laevis oocytes ordered from Ecocyte Bioscience (Dortmund, Germany) were microinjected with 15–25 nl of cRNA solution (5–50 ng/μl) per oocyte using an automated injector (Roboinject; Multi Channel Systems MCS GmbH, Reutlingen, Germany) and then incubated at 18 °C. All recordings were made 1–5 days post-cRNA injection and were performed at 18 ± 4 °C. Cells were superfused with OR2 medium (NaCl 88 mM, KCl 2.5 mM, HEPES 5 mM, CaCl2•2H2O 1.8 mM, MgCl2•7H2O 1.0 mM, pH 7.4). To ensure that γ2 subunits were integrated into the heteropentamers, we injected fivefold more γ2 than the other subunit cRNAs. Diazepam is a positive allosteric modulator of GABAR only if γ2 subunits are present. Therefore, we used this method to confirm the presence of human and dog GABAA receptor containing the γ2 subunit.
# (§3) Voltage-clamp measurements were performed as described by Rufener et al.. Oocytes were impaled with two electrodes filled with 3 M KCl, and their membrane potentials were maintained at − 80 mV throughout the experiment. […] Recordings were performed using an automated process equipped with standard two-electrode voltage-clamp configuration (HiClamp system; Multi Channel Systems MCS GmbH). Data were filtered at 10 Hz, captured at 100 Hz and analyzed using proprietary data acquisition and analysis software in MATLAB (Mathworks Inc., Natick, MA, USA). Additional analyses were performed using Excel (Microsoft, Redmond, WA, USA). […] Graphing the maximum inward currents against the log of agonist concentration produces typical concentration-activation and concentration-inhibition curves, which can be accurately described using individual Hill equations.
# Hsa-GABA α2β2γ2 = Hsa-GABA α2β2γ2 (Homo sapiens, UniProt P18507+P47869+P47870)
# Sequence of Hsa-GABA α2β2γ2 (P47869 29-451): as the sequence (P47869 29-451) above
# Sequence of Hsa-GABA α2β2γ2 (P47870 26-474 isoform P47870-1 limits assumed): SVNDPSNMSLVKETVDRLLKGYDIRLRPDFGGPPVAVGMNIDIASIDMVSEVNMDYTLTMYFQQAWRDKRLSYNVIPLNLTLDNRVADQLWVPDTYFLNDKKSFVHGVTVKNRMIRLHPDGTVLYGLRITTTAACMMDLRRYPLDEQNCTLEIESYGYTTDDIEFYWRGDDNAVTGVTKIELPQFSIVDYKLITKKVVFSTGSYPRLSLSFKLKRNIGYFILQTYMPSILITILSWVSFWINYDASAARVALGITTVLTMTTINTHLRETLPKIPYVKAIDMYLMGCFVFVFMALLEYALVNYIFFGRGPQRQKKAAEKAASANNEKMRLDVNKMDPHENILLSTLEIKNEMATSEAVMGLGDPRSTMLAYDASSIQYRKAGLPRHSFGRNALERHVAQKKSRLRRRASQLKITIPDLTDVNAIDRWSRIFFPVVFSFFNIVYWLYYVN
# Sequence of Hsa-GABA α2β2γ2 (P18507 40-467 isoform P18507-1 limits assumed): as the sequence (P18507 40-467 isoform P18507-1 limits assumed) above
# Description: as §1, §2, §3
# Hsa-GABA α6β2γ2 = Hsa-GABA α6β2γ2 (Homo sapiens, UniProt P18507+P47870+Q16445)
# Sequence of Hsa-GABA α6β2γ2 (Q16445 20-453): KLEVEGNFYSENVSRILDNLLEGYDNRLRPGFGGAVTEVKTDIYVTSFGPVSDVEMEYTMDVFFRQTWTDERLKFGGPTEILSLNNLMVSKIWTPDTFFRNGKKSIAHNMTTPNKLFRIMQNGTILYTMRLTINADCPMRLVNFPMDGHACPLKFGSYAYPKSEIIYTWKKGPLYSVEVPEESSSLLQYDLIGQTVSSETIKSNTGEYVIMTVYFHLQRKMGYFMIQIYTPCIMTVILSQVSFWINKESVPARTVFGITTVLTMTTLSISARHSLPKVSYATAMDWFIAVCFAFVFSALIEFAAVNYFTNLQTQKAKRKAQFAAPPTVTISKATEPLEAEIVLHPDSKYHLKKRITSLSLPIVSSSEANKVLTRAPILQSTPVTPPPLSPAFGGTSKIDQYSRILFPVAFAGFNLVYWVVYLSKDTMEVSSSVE
# Sequence of Hsa-GABA α6β2γ2 (P47870 26-474 isoform P47870-1 limits assumed): as the sequence (P47870 26-474 isoform P47870-1 limits assumed) above
# Sequence of Hsa-GABA α6β2γ2 (P18507 40-467 isoform P18507-1 limits assumed): as the sequence (P18507 40-467 isoform P18507-1 limits assumed) above
# Description: as §1, §2, §3
# Hsa-GABA α3β2γ2 = Hsa-GABA α3β2γ2 (Homo sapiens, UniProt P18507+P34903+P47870)
# Sequence of Hsa-GABA α3β2γ2 (P34903 29-492): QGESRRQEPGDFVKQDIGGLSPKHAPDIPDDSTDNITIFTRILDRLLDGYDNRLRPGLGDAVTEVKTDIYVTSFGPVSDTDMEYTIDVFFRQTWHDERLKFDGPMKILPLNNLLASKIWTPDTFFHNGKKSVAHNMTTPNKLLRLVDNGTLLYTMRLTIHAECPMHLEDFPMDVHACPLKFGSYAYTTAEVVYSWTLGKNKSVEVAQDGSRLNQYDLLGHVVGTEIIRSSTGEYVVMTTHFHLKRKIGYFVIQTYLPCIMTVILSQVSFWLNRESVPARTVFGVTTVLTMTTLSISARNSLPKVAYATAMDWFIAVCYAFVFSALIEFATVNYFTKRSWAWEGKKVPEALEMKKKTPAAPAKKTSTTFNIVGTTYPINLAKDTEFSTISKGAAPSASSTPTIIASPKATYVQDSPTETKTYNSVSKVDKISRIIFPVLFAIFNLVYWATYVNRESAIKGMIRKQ
# Sequence of Hsa-GABA α3β2γ2 (P47870 26-474 isoform P47870-1 limits assumed): as the sequence (P47870 26-474 isoform P47870-1 limits assumed) above
# Sequence of Hsa-GABA α3β2γ2 (P18507 40-467 isoform P18507-1 limits assumed): as the sequence (P18507 40-467 isoform P18507-1 limits assumed) above
# Description: as §1, §2, §3
# Hsa-GABA α1β2γ2 = Hsa-GABA α1β2γ2 (Homo sapiens, UniProt P14867+P18507+P47870)
# Sequence of Hsa-GABA α1β2γ2 (P14867 28-456): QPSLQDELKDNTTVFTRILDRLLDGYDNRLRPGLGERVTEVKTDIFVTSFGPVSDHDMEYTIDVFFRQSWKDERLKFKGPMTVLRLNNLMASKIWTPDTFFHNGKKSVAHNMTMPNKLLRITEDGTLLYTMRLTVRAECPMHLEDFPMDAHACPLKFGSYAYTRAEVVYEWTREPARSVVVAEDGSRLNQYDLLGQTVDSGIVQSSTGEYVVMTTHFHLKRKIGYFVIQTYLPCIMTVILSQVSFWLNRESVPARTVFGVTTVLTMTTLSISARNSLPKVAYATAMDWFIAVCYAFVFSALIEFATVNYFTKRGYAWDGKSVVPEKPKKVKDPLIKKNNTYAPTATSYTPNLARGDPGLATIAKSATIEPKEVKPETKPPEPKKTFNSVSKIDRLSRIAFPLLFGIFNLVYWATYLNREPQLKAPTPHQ
# Sequence of Hsa-GABA α1β2γ2 (P47870 26-474 isoform P47870-1 limits assumed): as the sequence (P47870 26-474 isoform P47870-1 limits assumed) above
# Sequence of Hsa-GABA α1β2γ2 (P18507 40-467 isoform P18507-1 limits assumed): as the sequence (P18507 40-467 isoform P18507-1 limits assumed) above
# Description: as §1, §2, §3
compound,measurement,setting,value
"NCCCC(=O)O [GABA, gamma-aminobutyric acid]",nH (Hill coefficient),Hsa-GABA α2β3γ2,1.2
same,nH (Hill coefficient),Hsa-GABA α2β2γ2,1.4
same,nH (Hill coefficient),Hsa-GABA α6β2γ2,1.1
same,nH (Hill coefficient),Hsa-GABA α3β2γ2,1.2
same,nH (Hill coefficient),Hsa-GABA α1β2γ2,1.7
